Laboratory results published in patent publication US8877775B2, “Substituted 2-aza-bicyclo[2.2.2]octane-3-carboxylic acid (benzyl-cyano-methyl)-amides inhibitors of cathepsin C” (Boehringer Ingelheim International GmbH, priority 2013, dated 2014).

System: Neutrophil elastase activity in U937 cells
Assay: Neutrophil elastase activity in U937 cytosolic lysate after incubation with test compound
Assay type: cell-based
Conditions: Homo sapiens, U-937; U937 cells incubated 48 hours with compound; NE activity in lysate; read-out: Reduction of NE-activity in U937 cells IC50
Method: Determination of Neutrophil Elastase Activity in U937 Cytosolic Lysate Preparation after Incubation with Test Compound Materials: Optiplate 384F were purchased from PerkinElmer (Prod. No. #6007270). 24 well Nunclon cell culture plates (No. 142475) and 96 well plates (No. 267245) were from Nunc. Dimethylsulfoxid (DMSO) was from Sigma (Prod. No. D8418). Nonidet-P40 (NP40) was from USBiological (Prod. No. N3500) Substrate, specific for Neutrophil elastase, was from Bachem (MeOSuc-Ala-Ala-Pro-Val-AMC; Prod. No. I-1270). Human neutrophil elastase was from Calbiochem (Prod. No. 324681) Buffers: Tris-buffer (100 mM Tris; 1M NaCL; pH 7.5) Tris-buffer+HSA 0.1%; Human Serum Albumin from Calbiochem (Cat#. 126658) Serine-protease buffer (20 mM Tris; 100 mM NaCL; pH 7.5)+0.1% HSA Serine protease lysis buffer: 20 mM Tris-HCL; 100 mM NaCl pH 7.5; +0.2% Nonidet-P40; PBS: phosphate buffered saline, without Ca and Mg, from Gibco Cell Culture: U937 from ECACC (Cat. No. 85011440) cultured in suspension at 37° C. and 5% CO2. Cell density: 0.2-1 Mio. Cells/ml. Medium: RPMI1640 GlutaMAX (No. 61870) with 10% FCS from Gibco Cell Seeding and Treatment: Compounds in 100% DMSO were diluted in Medium (—FCS) with 10% DMSO and further diluted according to the experiment planned. 20 μl of the compound solution was transferred in the respective wells of the 24 well plate and diluted with 2 ml cell suspension/well containing 1′10^5 cells/ml (final concentration of DMSO=0.1%). Compound dilution factor=100 Compounds (up to 7 concentrations) were tested in triplicates with 3 wells for the DMSO 0.1% control, incubated for 48 hours without medium change at 37° C., 5% CO2 and 95% relative to humidity. Cell Harvesting and Cell Lysate:
Transfer the cell suspension in 2.2 ml Eppendorf cups. Separate cells from medium by centrifugation (400×g; 5 min; RT); discard the supernatant. Resuspend in 1 ml PBS; centrifugation (400×g; 5 min; RT); wash cells twice with PBS. Add 100 μl Serin lysis buffer (ice cold) to the cell pellet; resuspend the pellet and store on ice for 15 minutes. Remove debris by centrifugation at 15000×g for 10 min at 4° C. Transfer 80-100 μl lysate supernatant in 96 well plate and store immediately at −80° C.
Neutrophil Elastase Activity Assay:
Frozen lysates were thawn at 37° C. for 10 minutes and stored on ice. Protein content was determined with Bradford protein assay. Lysates were diluted to 0.2-0.5 mg/ml protein in serine protease buffer+HSA.
Standard: NE (100 μg/ml stocksolution in Tris-buffer; stored at −80° C.) was diluted in Tris-buffer+HSA to 750 ng/ml, and further serially diluted 1:2 for the standard curve.
Buffer, blank, standard and lysate samples were transferred into 384 well plate
The increase in fluorescence (Ex360 nm/Em 460 nm) is determined over 30 minutes with a Molecular Device Spectramax M5 Fluorescence Reader. Kinetic Reduction (Vmax units/sec); 4 vmax points. The amount of neutrophil elastase (ng/ml) is calculated using the standard curve and the Spectramax software. The result is interpolated to ng/mg lysate protein using excel formula functions. […] IC50 is calculated using Graphpad Prism; nonlinear fitting (log(inhibitor) vs. response—Variable slope). The IC50 value is interpolated as the concentration of test compound which leads to a neutrophil elastase activity reduction of 50% (relative to the DMSO-treated control).

In order of rising IC50:
1. CN1C(=O)Cc2ccc(-c3ccc(C[C@@H](C#N)NC(=O)[C@H]4N[C@H]5CC[C@@H]4CC5)cc3)cc21 [Example 4]  50 nM
2. N#C[C@H](Cc1ccc(-c2ccc3c(c2)NC(=O)C3)cc1)NC(=O)[C@H]1NC2CCC1CC2 [Example 2, (2S)—N-[(1S)-cyano-2-[4-(2-oxoindolin-6-yl)phenyl]ethyl]-3-azabicyclo[2.2.2]octane-2-carboxamide]  281 nM
3. N#C[C@H](Cc1ccc(-c2ccc3c(c2)CNC3=O)cc1)NC(=O)[C@H]1NC2CCC1CC2 [Example 11]  328 nM
4. CS(=O)(=O)c1cccc(-c2ccc(C[C@@H](C#N)NC(=O)[C@H]3NC4CCC3CC4)cc2)c1 [Example 10]  426 nM
5. CS(=O)(=O)Nc1cccc(-c2ccc(C[C@@H](C#N)NC(=O)[C@H]3NC4CCC3CC4)cc2)c1 [Example 12]  450 nM
6. CS(=O)(=O)c1cc(-c2ccc(C[C@@H](C#N)NC(=O)[C@H]3NC4CCC3CC4)cc2)ccc1C#N [Example 8]  469 nM
7. N#Cc1ccc(-c2ccc(C[C@@H](C#N)NC(=O)[C@H]3N[C@H]4CC[C@@H]3CC4)cc2)cc1F [Example 7, (2S)—N-[(1S)-1-cyano-2-[4-(4-cyano-3-fluoro-phenyl)phenyl]ethyl]-3-azabicyclo[2.2.2]octane-2-carboxamide]  561 nM
